“And” between values parts separate entries of the source, which are not always exact repeats. Equal entries are not always repeated. “Also recorded” adds a separate entry of the source. Where two headings read alike, the source gives them in different places.
What was measured:
mTORC1 = mTORC1 signaling in HeLa cells by immunoblotting; assay type: cell-based; conditions: for mTORC1-mediated signaling (p-ULK1, pS6K1, p-4E-BP1): amino acid stimulation
Experimental: HeLa cells were subjected to starvation/refeeding protocols as described in the previous section, then lysed in ice-cold lysis buffer (150 mM NaCl, 20 mM HEPES [pH 7.4], 2 mM EDTA, 0.3% CHAPS or 1% Triton X-100, and one tablet of EDTA-free protease inhibitors per 50 ml). Cell lysates were cleared by centrifugation at 13,000 rpm for 10 minutes in a microfuge. Samples were normalized to a total concentration of 1 mg/mL protein and prepared using sample buffer at 1×, then boiled for 5 minutes at 95 C. Samples were loaded onto 10% or 12% SDS-Page gels, and analyzed by immunoblotting.
Several of these compounds were also directly tested for their ability to inhibit mTORC1 signaling in immunoblotting-based assays. […] Thus, we pursued CC 1-44 for further characterization.

LAMTOR5 = LAMTOR5 (Homo sapiens, UniProt O43504); experiment: Competitive isoTOP-ABPP with purified mTORC1, Rag GTPase and Lamtor complexes; assay type: binding
Source text: To identify the specific druggable hotspot targeted by YP 1-44 within the TORC1 complex, we performed a chemoproteomic study using isotopic tandem orthogonal proteolysis-enabled activity-based protein profiling (isoTOP-ABPP). IsoTOP-ABPP uses reactivity-based chemical probes to profile proteome-wide reactive, functional, and druggable hotspots directly in complex proteomes. When used in a competitive manner, small-molecule covalent ligands can be competed against the binding of reactivity-based probes to facilitate the identification of druggable hotspots targeted by lead covalent ligands (5-7) (FIG. 4A). Here, we pre-treated human purified mTORC1, Rag GTPase and Lamtor complexes with either vehicle or YP 1-44, and subsequently labeled this reconstituted system with a broad cysteine-reactive probe iodoacetamide-alkyne (IA-alkyne). Any accessible cysteine druggable hotspot would be labeled with the IA-alkyne probe in the vehicle-treated control, but the site bound by YP 1-44 would no longer accessible to IA-alkyne binding. Subsequently, we used copper-catalyzed azide-alkyne cycloaddition to append an isotopically light (for control) or heavy (for YP 1-44-treated) biotin-azide tag bearing a TEV protease recognition peptide onto probe-labeled proteins, upon which we combined the control and treated proteomes in a 1:1 ratio, followed by avidin-enrichment, tryptic digestion, and elution of probe-modified tryptic peptides by TEV protease. The resulting peptides were analyzed by LC-LC/MS/MS and light-to-heavy ratios of probe-modified peptides were quantified. We identified two cysteines within LAMTOR5, C148 and C23 that were labeled with ratios of 0.51 and 3.7, respectively. If YP 1-44 bound to a particular cysteine, we would expect a higher (>2) light-to-heavy ratio.
IsoTOP-ABPP analyses were performed using a modified version of our previously reported method (PMID 28352901, 28186401). We pre-treated human purified mTORC1, Rag GTPase and Lamtor complexes (5 micrograms each) with DMSO vehicle or YP 1-44 (50 μM) for 30 min at 37° C. in phosphate-buffered saline (PBS), and then labeled with IA-alkyne (100 μM) for 1 h at room temperature. They were subsequently treated with isotopically light (control) or heavy (treated) TEV-biotin (100 μM) and copper-catalyzed azide-alkyne cycloaddition (CuAAC). For analysis of cysteine reactivity in primary colorectal tumor tissue, tumors were pooled and incubated with either 100 μM IA-alkyne and isotopically heavy TEV-biotin or 10 μM IA-alkyne and isotopically light TEV-biotin followed by CuAAC. Proteins were precipitated over one hour and pelleted by centrifugation at 6500×g. Proteins were washed 3 times with cold methanol then denatured and resolubilized by heating in 1.2% SDS/PBS to 85° C. for 5 min. Insoluble components were precipitated by centrifugation at 6500×g and soluble proteome was diluted in 5 ml PBS, for a final concentration of 0.2% SDS. Labeled proteins were bound to avidin-agarose beads (170 μL resuspended beads/sample, Thermo Pierce) while rotating overnight at 4° C. Bead-linked proteins were enriched by washing three times each in PBS and water, then resuspended in 6 M urea/PBS (Sigma-Aldrich) and reduced in dithiothreitol (1 mM, Sigma-Aldrich), alkylated with iodoacetamide (18 mM, Sigma-Aldrich), then washed and resuspended in 2 M urea/PBS with 1 mM calcium chloride and trypsinized overnight with 0.5 μg/μl sequencing grade trypsin (Promega). […]

mTOR = experiment: Immunofluorescence of mTOR and LAMP2 in HEK-293A cells; assay type: cell-based; conditions: 2 h
Experimental: (§1) FIGS. 6A-6D. CC 1-44 inhibits mTORC1 signaling and activates autophagy. (FIG. 6A) Visual IP experiment monitoring binding of GFP-RagB to RFP-tagged, bead-bound Lamtor complex. […] (FIG. 6B) Immunofluorescence for endogenous RagA and LAMP2 in HEK-293A cells treated with DMSO, YP 1-44 or CC 1-44 for 2 h. […] (FIG. 6C) Immunofluorescence for endogenous mTOR and LAMP2 in HEK-293A cells treated with DMSO or CC 1-44 for 2 h. […] (FIG. 6D) Immunoblotting for autophagic markers LC3b and p62 from HEK-293A cells treated with DMSO (lane 1) or CC 1-44 (lane 3) for 2 h.
(§2) Next, we investigated the mechanism of mTORC1 inhibition by CC-1-44 using visual IP and immunofluorescence. […] Indeed, when we visualized RagA and RagC localization in CC 1-44-treated cells, their localization to LAMP2-positive lysosomes was increased, not decreased as for YP 1-44 (FIG. 6B). This observation pointed to a different mechanism for mTORC1 inactivation by CC 1-44. Rather than disrupting the integrity of the LAMTOR-Rag assembly, CC 1-44 prevents its activation, causing it to strongly accumulate at the lysosome in a conformation that is unable to bind to mTORC1.

Hela whole cell proteome = experiment: Gel-based ABPP of IA-alkyne cysteine reactivity in Hela whole cell proteome
Source text: Thus, we performed medicinal chemistry to optimize the potency and selectivity of our initial hits by addition of further bulk to the core YP 1-44 scaffold (FIGS. 9A-9C; FIG. 5B). We initially screened these compounds against both LAMTOR5 and the Ragulator complex using gel-based ABPP methods competing the binding of these YP 1-44 analogs against IA-alkyne labeling of these proteins (FIG. 5C, FIG. 9). We also tested these compounds against Hela cell whole proteome cysteine reactivity to get initial read-outs of proteome-wide selectivity (FIGS. 9A-9C, FIG. 5D).

RagA and RagC = experiment: Immunofluorescence of Rag GTPases and LAMP2 in HEK-293A cells; assay type: cell-based; conditions: 2 h
Experimental: as §1, §2

[1] = compound 50 μM, IA-alkyne 100 μM, average of n=4

Row | isoTOP-ABPP light-to-heavy ratio, LAMTOR5 C23 (LAMTOR5; [1]) | isoTOP-ABPP light-to-heavy ratio, LAMTOR5 C148 (LAMTOR5; [1]) | Structure (SMILES) | phosphorylation of canonical mTORC1 substrates S6K1, 4E-BP1 and ULK1 (mTORC1; 10 μM) | potency of mTORC1 blockade relative to YP 1-44 (mTORC1; immunoblotting) | LAMTOR5 cysteines targeted (isoTOP-ABPP) (LAMTOR5) | LAMTOR5 cysteines targeted (isoTOP-ABPP) (LAMTOR5; listed as CC-1-44) | mTOR/mTORC1 localization to lysosomes (mTOR) | proteome-wide selectivity (displacement of IA-alkyne cysteine reactivity) (Hela whole cell proteome) | RagA and RagC localization to LAMP2-positive lysosomes (RagA and RagC) | mTORC1-mediated signaling (p-ULK1, pS6K1, p-4E-BP1) (mTORC1) | mTORC1-mediated signaling (p-ULK1, pS6K1, p-4E-BP1) (mTORC1; listed as YP1-44)
1 |  |  | C=CC(=O)N1CCc2c(OCc3cc(C(F)(F)F)cc(C(F)(F)F)c3)cccc21 [CC 1-44] | completely inhibited | potency comparable to YP 1-44 | modified C23 and C148 in LAMTOR5 | target C23 and C148 of LAMTOR5 | induces dissociation of mTOR from lysosomes; also recorded: completely dispersed from lysosomes | selectivity at up to 1 mM; also recorded: apparent selectivity up to 1 mM | increased RagA clustering on lysosomes |  | 
2 | > 3 and 3.7 | 0.51 | C=CC(=O)n1ccc2ccccc21 [YP 1-44] |  |  | target C23 and C148 of LAMTOR5; also recorded: C23 of LAMTOR5 was the primary site; also recorded: modified C23 and C148 in LAMTOR5 |  | completely dispersed from lysosomes | non-selectivity at 100 μM and above; also recorded: not sufficiently selective at higher concentrations (>100 μM) | causes RagA dissociation from Lamtor; also recorded: decreased | completely inhibited | suppresses mTORC1 activation by amino acids

— US10807951B2, “mTORC1 modulators” (THE REGENTS OF THE UNIVERSITY OF CALIFORNIA, priority 2017, dated 2020)
